Results from US20070134261A1, “Effectors of innate immunity” (priority 2001, published 2007).
Where “and” joins values, the source holds several entries; their conditions need not be identical. Equal entries are not always repeated.

Tested on: human A549 epithelial cells
Test: Resgen Human cDNA arrays (PRHU03-S3) of A549 cells treated with peptide (Tables 21-26)
Conditions: 50 μg/ml, 4 h

CC[C@H](C)[C@H](N)C(=O)N[C@@H](CC(C)C)C(=O)N1CCC[C@H]1C(=O)N[C@@H](Cc1c[nH]c2ccccc12)C(=O)N[C@@H](CCCCN)C(=O)N[C@@H](Cc1c[nH]c2ccccc12)C(=O)N1CCC[C@H]1C(=O)N[C@@H](Cc1c[nH]c2ccccc12)C(=O)N[C@@H](Cc1c[nH]c2ccccc12)C(=O)N1CCC[C@H]1C(=O)N[C@@H](Cc1c[nH]c2ccccc12)C(=O)N[C@@H](CCCNC(=N)N)C(=O)N[C@@H](CCCNC(=N)N)C(N)=O [SEQ ID NO: 2]
Ratio Peptide:Unstimulated, small inducible cytokine subfamily A (Cys—Cys), member 20 (AI285199): 0.19 | Ratio Peptide:Unstimulated, TLR 1 (AI339155): 0.35 | Ratio Peptide:Unstimulated, disintegrin-like and metalloprotease with thrombospondin type 1 motif, 5 (AI375048): 0.39 | Ratio Peptide:Unstimulated, killer cell lectin-like receptor subfamily G, member 1 (AI433079): 2.3 | Ratio Peptide:Unstimulated, apoptosis antagonizing transcription factor (AI439571): 0.28 | Ratio Peptide:Unstimulated, T-cell receptor interacting molecule (AI453185): 0.41 | Ratio Peptide:Unstimulated, TGFB inducible early growth response 2 (AI473938, listed as ID 2): 2.4 and 2.38 | Ratio Peptide:Unstimulated, MAP kinase kinase kinase 1 (AI538525): 0.61 | Ratio Peptide:Unstimulated, protocadherin 12 (AI652584): 14.8 | Ratio Peptide:Unstimulated, protein tyrosine phosphatase, non-receptor type 18 (AI668897): 3.2 | Ratio Peptide:Unstimulated, Fc fragment of IgE, high affinity I, receptor for; alpha polypeptide (AI676097): 0.43 | Ratio Peptide:Unstimulated, G protein-coupled receptor 4 (AI719098): 3.7 | Ratio Peptide:Unstimulated, peroxisome proliferative activated receptor, alpha (AI739498): 0.38 | Ratio Peptide:Unstimulated, cadherin 12, type 2 (N-cadherin 2) (AI740827): 13 | Ratio Peptide:Unstimulated, complement component C1q receptor (AI761788): 0.46 | Ratio Peptide:Unstimulated, small inducible cytokine subfamily B (Cys-X-Cys), member 6 (granulocyte chemotactic protein 2) (AI889554): 0.11 | Ratio Peptide:Unstimulated, small inducible cytokine subfamily A (Cys—Cys), member 21 (AI922341): 3.9 | Ratio Peptide:Unstimulated, protein tyrosine phosphatase, receptor type, H (AI924306): 0.11 | Ratio Peptide:Unstimulated, tyrosine kinase, non-receptor, 1 (AI936324): 7.8 | Ratio Peptide:Unstimulated, MAP kinase 12 (AI936909): 2.1 | Ratio Peptide:Unstimulated, G protein-coupled receptor 17 (AI953187): 0.32 | Ratio Peptide:Unstimulated, apoptosis inhibitor 5 (AI972925): 2.8 | Ratio Peptide:Unstimulated, IL-17 R (AW029299): 2.1 | Ratio Peptide:Unstimulated, MAP kinase kinase kinase 6 (AW084649): 0.37 | Ratio Peptide:Unstimulated (C-type lectin-like receptor-2 (H70491)): 2.09 | Ratio Peptide:Unstimulated (CCR6 (N57964)): 4.51 | Ratio Peptide:Unstimulated (CD31 (PECAM) (R22412)): 2.71 | Ratio Peptide:Unstimulated, selectin L (lymphocyte adhesion molecule 1) (H00662): 0.03 | Ratio Peptide:Unstimulated, MAP kinase kinase kinase 10 (H01340): 1.23 | Ratio Peptide:Unstimulated, protein tyrosine phosphatase, non-receptor type 21 (H03504): 0.94 | Ratio Peptide:Unstimulated, MAP kinase kinase 6 (H07920, listed as ID 2): 18 and 17.83 | Ratio Peptide:Unstimulated, disintegrin and metalloproteinase domain 23 (H11006): 1.9 | Ratio Peptide:Unstimulated, vascular cell adhesion molecule 1 (H16591): 0.20 | Ratio Peptide:Unstimulated, leukocyte immunoglobulin-like receptor, subfamily B (H54023): 0.35 | Ratio Peptide:Unstimulated, disintegrin and metalloproteinase domain 9 (H59231): 1.1 | Ratio Peptide:Unstimulated, TGF beta receptor III (H62473): 0.91 | Ratio Peptide:Unstimulated, regulator of G-protein signaling 13 (H70047): 0.54 | Ratio Peptide:Unstimulated, C-type lectin-like receptor-2 (H70491): 2.1 | Ratio Peptide:Unstimulated, vasoactive intestinal peptide receptor 1 (H73241): 0.43 | Ratio Peptide:Unstimulated, protein tyrosine phosphatase, receptor type, C (H74265): 0.44 | Ratio Peptide:Unstimulated, protein tyrosine phosphatase, receptor type, A (H82419): 4.0 | Ratio Peptide:Unstimulated, G protein-coupled receptor 75 (H84878): 5.2 | Ratio Peptide:Unstimulated, cadherin 1, type 1, E-cadherin epithelial (H97778): 8.1 | Ratio Peptide:Unstimulated, TNF R superfamily, member 5 (CD40LR) (H98636, listed as ID 2): 3.0 and 2.98 | Ratio Peptide:Unstimulated (IL-11 Rα (AA454657)): 2.39 | Ratio Peptide:Unstimulated (IL-17 R (AW029299)): 2.05 | Ratio Peptide:Unstimulated (MAP kinase 9 (AA157286)): 0.57 | Ratio Peptide:Unstimulated, TLR 7 (N30597): 0.13 | Ratio Peptide:Unstimulated, CD36 (N39161): 8.2 | Ratio Peptide:Unstimulated, TLR 5 (N41021): 0.12 | Ratio Peptide:Unstimulated, protein tyrosine phosphatase, receptor type, f polypeptide (PTPRF), interacting protein (liprin), α1 (N49751): 0.43 | Ratio Peptide:Unstimulated, IL-2 receptor, gamma (severe combined immunodeficiency) (N54821): 0.30 | Ratio Peptide:Unstimulated, adenosine A2a R (N57553): 3.1 | Ratio Peptide:Unstimulated, CCR6 (N57964): 4.5 | Ratio Peptide:Unstimulated, G protein-coupled receptor 55 (N58443): 19 | Ratio Peptide:Unstimulated, G protein-coupled receptor 85 (N62306): 6.8 | Ratio Peptide:Unstimulated, leukocyte immunoglobulin-like receptor, subfamily A (N63398): 0.44 | Ratio Peptide:Unstimulated, receptor tyrosine kinase-like orphan receptor 2 (N94921): 7.3 | Ratio Peptide:Unstimulated, CD31 (R22412): 2.7 | Ratio Peptide:Unstimulated, IK cytokine, down-regulator of HLA II (R39227, listed as ID 2): 3.1 and 3.11 | Ratio Peptide:Unstimulated, cell adhesion molecule (R40400): 4.0 | Ratio Peptide:Unstimulated, cadherin 13, H-cadherin (heart) (R41787): 0.37 | Ratio Peptide:Unstimulated, diphtheria toxin receptor (heparin-binding epidermal growth factor-like growth factor) (R45640): 0.49 | Ratio Peptide:Unstimulated, protein tyrosine phosphatase, receptor type, T (R52794): 1.2 | Ratio Peptide:Unstimulated, PDGF R beta polypeptide (R56211): 2.5 | Ratio Peptide:Unstimulated, interleukin enhancer binding factor 1 (R56553): 2.7 | Ratio Peptide:Unstimulated, Fc fragment of IgG, low affinity IIb, receptor for (CD32) (R68106): 0.27 | Ratio Peptide:Unstimulated, MAP kinase kinase kinase 11 (R80779): 0.65 | Ratio Peptide:Unstimulated, protocadherin gamma subfamily C, 3 (R89615): 3.0 | Ratio Peptide:Unstimulated, G protein-coupled receptor (R91916): 1.84 | Ratio Peptide:Unstimulated, TNF receptor-associated factor 2 (T55353): 1.22 | Ratio Peptide:Unstimulated, TLR 2 (T57791): 0.52 | Ratio Peptide:Unstimulated, caspase 1, apoptosis-related cysteine protease (interleukin 1, beta, convertase) (T95052): 0.44 | Ratio Peptide:Unstimulated, BMP R type IA (W15390): 1.9 | Ratio Peptide:Unstimulated, caspase 6, apoptosis-related cysteine protease (W45688): 0.7 | Ratio Peptide:Unstimulated, MAP kinase kinase kinase 8 (W56266): 1.52 | Ratio Peptide:Unstimulated, integrin, beta 8 (W56754): 0.10 | Ratio Peptide:Unstimulated, MAP kinase kinase kinase 14 (W61116): 0.34 | Ratio Peptide:Unstimulated, integrin, beta 1 (W67174): 2.1 | Ratio Peptide:Unstimulated, MAP kinase-activated protein kinase 3 (W68281, listed as ID 2): 2.1 and 2.13 | Ratio Peptide:Unstimulated, MAP kinase kinase 5 (W69649): 3.0 | Ratio Peptide:Unstimulated, TNF receptor superfamily, member 12 (W71984): 0.59 | Ratio Peptide:Unstimulated, killer cell lectin-like receptor subfamily C, member 3 (W93370): 3.2 | Ratio Peptide:Unstimulated, Mouse Mammary Turmor Virus Receptor homolog (W93891): 6.9 | Ratio Peptide:Unstimulated (integrin, alpha 2 (CD49B) (AA463257)): 0.89 | Ratio Peptide:Unstimulated (integrin, alpha 3 (antigen CD49C) (AA424695)): 0.79 | Ratio Peptide:Unstimulated (integrin, alpha E (AA425451)): 179.33 | Ratio Peptide:Unstimulated (integrin, beta 4 (AA485668)): 0.79 | Ratio Peptide:Unstimulated (small inducible cytokine subfamily A, member 21 (AI922341)): 3.88
